# In US20080070867A1, “2-Imidazolone and 2-Imidazolidinone Heterocyclic Inhibitors of Tyrosine Phosphatases” (Metabasis Therapeutics, Inc., priority 2005, published 2008):
# Molecular target: T1, Human recombinant PTP-1B (Homo sapiens, UniProt P18031)
# T1 construct: Human recombinant PTP-1B, containing amino acids 1-321, fused to GST enzyme; GST (glutathione S-transferase)
# T1 sequence (P18031 1-321): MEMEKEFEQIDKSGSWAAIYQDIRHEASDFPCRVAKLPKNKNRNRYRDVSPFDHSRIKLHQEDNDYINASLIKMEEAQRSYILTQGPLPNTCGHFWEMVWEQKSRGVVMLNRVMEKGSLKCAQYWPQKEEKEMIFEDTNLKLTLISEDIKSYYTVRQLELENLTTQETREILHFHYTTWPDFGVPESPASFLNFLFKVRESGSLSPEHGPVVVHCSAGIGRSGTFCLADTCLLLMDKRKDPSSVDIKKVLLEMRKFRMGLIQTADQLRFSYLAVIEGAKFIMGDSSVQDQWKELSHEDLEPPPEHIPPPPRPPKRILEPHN
# Assay: Assay for PTP-1B Activity (pNPP substrate)
# Assay type: biochemical
# Details: human recombinant PTP-1B (1-321) GST fusion, 2 mM pNPP, pH 7.4, 30° C., 20 min; read-out: Activity Code (IC50 range)
# Text: The activity of the compounds as modulators of protein tyrosine phosphatase, including PTP-1B, may be measured in standard assays (see, e.g., Examples 41 and 42). Briefly, the assay described herein employs human recombinant PTP-1B and a pNPP substrate in a rescue assay.
# Assay for PTP-1B Activity
# Enzyme: Human recombinant PTP-1B, containing amino acids 1-321, fused to GST enzyme (glutathione S-transferase) purified by affinity chromatography (Huyer et al, 1997, J. Biol. Chem., 272, 843-852).
# pNPP: p-Nitrophenyl Phosphate (Calbiochem)
# Assay Buffer: 50 mM HEPES (pH 7.4), 100 mM NaCl, 2 mM EDTA, 3 mM DTT
# (5×) pNPP substrate: 10 mM pNPP in assay buffer
# Enzyme: 1 mg/ml PTP1B (1-321), dilute 1:200 in assay buffer
# Assay buffer: 50 mM HEPES (pH 7.4), 100 mM NaCl, 2 mM EDTA, 3 mM DTT
# Enzyme dilution buffer: 50 mM HEPES (pH 7.4), 100 mM NaCl, 2 mM EDTA, 3 mM DTT
# Substrate 198 mM p-Nitrophenyl Phosphate (pNPP) store at 4° C.
# The assay was carried out at 30° C. in 96 well plates. The reaction mixture in 60 ul contained 50 mM HEPES (pH 7.4), 100 mM NaCl, 2 mM EDTA, 3 mM DTT, and 2 mM p-Nitrophenyl Phosphate (pNPP). 5 ul of the test compound (inhibitor) dissolved in DMSO or DMSO alone for control was added to each well and the plate was mixed for 2 min. The reaction was initiated by adding 20 ul of diluted PTP1B (5 ng/ul in 50 mM HEPES (pH 7.4), 100 mM NaCl, 2 mM EDTA, 3 mM DTT). After 20 min at 30° C., the enzyme reaction was terminated by adding 100 ul of 2 M K2CO3 to each well. The phosphatase activity was detected by using Victor II plate reader (Wallac) with absorbance detection at 405 nm. All the assays were done at least in duplicate. The initial rate of pNP is plotted against the concentration of inhibitor.
row,IC50 [nM],Structure (SMILES)
1,250 to 2500,"CNC(=O)c1ccc(-c2cn(Cc3ccccc3)c(=O)n2Cc2ccc(C(F)(F)P(=O)(O)O)c(Br)c2)cc1 [Compound 28, ({4-[3-Benzyl-5-(4-methylcarbamoyl-phenyl)-2-oxo-2,3-dihydro-imidazol-1-ylmethyl]-2-bromo-phenyl}-difluoro-methyl)-phosphonic acid]"
2,250 to 2500,"O=c1n(Cc2ccccc2)cc(-c2ccccc2)n1Cc1ccc(C(F)(F)P(=O)(O)O)c(Br)c1 [Compound 29, {[4-(3-Benzyl-2-oxo-5-phenyl-2,3-dihydro-imidazol-1-ylmethyl)-2-bromo-phenyl]-difluoro-methyl}-phosphonic acid]"
3,250 to 2500,"O=c1n(Cc2ccccc2)cc(-c2ccc3c(c2)OCCO3)n1Cc1ccc(C(F)(F)P(=O)(O)O)c(Br)c1 [Compound 30, ({4-[3-Benzyl-5-(2,3-dihydro-benzo[1,4]dioxin-6-yl)-2-oxo-2,3-dihydro-imidazol-1-ylmethyl]-2-bromo-phenyl}-difluoro-methyl)-phosphonic acid]"
4,250 to 2500,"N#Cc1cccc(-c2cn(Cc3ccccc3)c(=O)n2Cc2ccc(C(F)(F)P(=O)(O)O)c(Br)c2)c1 [Compound 31, ({4-[3-Benzyl-5-(3-cyano-phenyl)-2-oxo-2,3-dihydro-imidazol-1-ylmethyl]-2-bromo-phenyl}-difluoro-methyl)-phosphonic acid]"
5,< 99,"CS(=O)(=O)c1ccc(-c2cn(Cc3cccc(N)c3)c(=O)n2Cc2ccc(C(F)(F)P(=O)(O)O)c(Br)c2)cc1 [Compound 32, ({4-[3-(3-Amino-benzyl)-5-(4-methanesulfonyl-phenyl)-2-oxo-2,3-dihydro-imidazol-1-ylmethyl]-2-bromo-phenyl}-difluoro-methyl)-phosphonic acid]"
6,250 to 2500,"O=c1n(CC2CC2)cc(-c2ccccc2)n1Cc1ccc(C(F)(F)P(=O)(O)O)c(Br)c1 [Compound 33, {[2-Bromo-4-(3-cyclopropylmethyl-2-oxo-5-phenyl-2,3-dihydro-imidazol-1-ylmethyl)-phenyl]-difluoro-methyl}-phosphonic acid]"
7,250 to 2500,"COc1cc(Cn2cc(-c3ccc(C(=O)O)cc3)n(Cc3ccc(C(F)(F)P(=O)(O)O)c(Br)c3)c2=O)cc(OC)c1 [Compound 34, 4-[3-[3-Bromo-4-(difluoro-phosphono-methyl)-benzyl]-1-(3,5-dimethoxy-benzyl)-2-oxo-2,3-dihydro-1H-imidazol-4-yl]-benzoic acid]"
8,250 to 2500,"O=C(O)c1ccc(-c2cn(C3CC3)c(=O)n2Cc2ccc(C(F)(F)P(=O)(O)O)c(Br)c2)cc1 [Compound 35, 4-{3-[3-Bromo-4-(difluoro-phosphono-methyl)-benzyl]-1-cyclopropyl-2-oxo-2,3-dihydro-1H-imidazol-4-yl}-benzoic acid]"
9,250 to 2500,"O=C(O)c1ccc(-c2cn(Cc3ccccn3)c(=O)n2Cc2ccc(C(F)(F)P(=O)(O)O)c(Br)c2)cc1 [Compound 36, 4-{3-[3-Bromo-4-(difluoro-phosphono-methyl)-benzyl]-2-oxo-1-pyridin-2-ylmethyl-2,3-dihydro-1H-imidazol-4-yl}-benzoic acid]"
10,250 to 2500,"CCOC(=O)n1cc(-c2ccc(C(=O)OC)cc2)n(Cc2ccc(C(F)(F)P(=O)(O)O)c(Br)c2)c1=O [Compound 37, 3-[3-Bromo-4-(difluoro-phosphono-methyl)-benzyl]-4-(4-methoxycarbonyl-phenyl)-2-oxo-2,3-dihydro-imidazole-1-carboxylic acid ethyl ester]"
11,250 to 2500,"COC(=O)c1ccc(-c2cn(C)c(=O)n2Cc2ccc(C(F)(F)P(=O)(O)O)c(Br)c2)cc1 [Compound 38, 4-{3-[3-Bromo-4-(difluoro-phosphono-methyl)-benzyl]-1-methyl-2-oxo-2,3-dihydro-1H-imidazol-4-yl}-benzoic acid methyl ester]"
12,250 to 2500,"O=c1n(Cc2ccccc2)cc(-c2ccsc2)n1Cc1ccc(C(F)(F)P(=O)(O)O)c(Br)c1 [Compound 39, {[4-(3-Benzyl-2-oxo-5-thiophen-3-yl-2,3-dihydro-imidazol-1-ylmethyl)-2-bromo-phenyl]-difluoro-methyl}-phosphonic acid]"
